Values of other authors, collected in patent US20150111372A1 (priority 2013, published 2015).
Read-outs that look alike come from different tables or passages of the source.

Assays:
[1] = test system: livers of chickens; settings: in vivo

Q: For `O=C(O)CNCP(=O)(O)O` [N-(phosphonomethyl)glycine), N-(phosphonomethyl)glycine], which “Solubility, Water” value (pH 2) is on record?
A: pH 2: 10 g/L

Q: What about the “Solubility, Water” value (pH 5) of the same molecule?
A: pH 5-9: 1 kg/L

Q: Which “levels of arsenic in the livers of chickens” value [1] does the source give for `O=[N+]([O-])c1cc([As](=O)(O)O)ccc1O` [Roxarsone, 4-Hydroxy-3-nitrobenzenearsonic acid] here?
A: elevated (but 'very low') levels
